≈ marks a conversion by molar mass, not a printed value. Where two headings read alike, the source gives them in different places.
Tests used:
H69/LX4 = assay: MTT assay, 7-day exposure: sensitivity of resistant (MDR) cells to chemotherapeutic agents with or without MDR inhibitor (Example 1); format: cell-based; details: Homo sapiens, 168 h
Description: (§1) A further test using no MDR inhibitor was used as a standard.
The cell lines used were human small cell lung cancer cell line HP69/P and a multi-drug resistant (MDR) sub-line H69/LX4, both of which were supplied by the MRC Clinical Oncology and Radiotherapeutics Unit, Hills Road, Cambridge, England. The maintenance of the cell lines and drug response assays was done as described by Twentyman et al in British Journal of Cancer Volume 65 pages 335-340. The H69/LX4 line was originally described by Twentyman et al in British Journal of Cancer Volume 53, pages 529-637 (1986).
The data in parenthesis represents fold sensitivity compared with the chemotherapeutic agent without the MDR inhibitor.

H69/P = assay: MTT assay, 7-day exposure: sensitivity of parent cells to chemotherapeutic agents with or without MDR inhibitor (Example 1); format: cell-based, human; details: for fold sensitivity compared with the chemotherapeutic agent without the MDR inhibitor, B669 / fold sensitivity compared with the chemotherapeutic agent without the MDR inhibitor, Clofazimine (B663) / fold sensitivity compared with the chemotherapeutic agent without the MDR inhibitor, CsA: value in parenthesis; for fold sensitivity compared with the chemotherapeutic agent without the MDR inhibitor, CsA: with CsA 5 µg/ml; for IC50: Homo sapiens, 168 h
Description: as §1

K562/MMB = assay: MTT assay, 7-day exposure to riminophenazines alone or with fixed doxorubicin or vinblastine (Example 4); format: cell-based; details: Homo sapiens, K562, 168 h
Description: A third cell line (562/MMB) used was a MDR leukemia cell line selected in vitro by progressive exposure to increasing concentrations of vinblastine in order to increase P-glycoprotein expression. […] This cell line expresses high levels of P-glycoprotein as determined by flowcytometry using the monoclonal antibody (MRK 16) against this molecule.
The effects were examined of a 7-day exposure of selected compounds on the sensitivity of the cell line (K562/MMB) to the standard chemotherapeutic agents doxorubicin and vinblastine, using the MTT assay.
The cells were seeded at 1 x 10^4 cells per well in 96 well microlitre plates in a volume of 200 µl of RPMI 1640 medium containing 10 % fetal calf serum and incubated with doxorubicin (12.5 ng/ml) or vinblastine (3 ng/ml). The amounts of MDR modulators used were 0.03, 0.06, 0.125, 0.5, 1.0 and 2.0 µg/ml.
After incubation at 37 °C for 7 days, 20 µl MTT (i.e. 3-[4,5-dimethylthiazol-2-yl]2,5-diphenyl-tetrazolium bromide) at 5 mg/ml was added to each well and the plates incubated for a further 4 hours. The cells were washed with phosphate buffered saline and the intracellular formazan crystals solubilized with dimethylsulphoxide, and the absorbency measured spectrophotometrically at a test wavelength of 540 nm and a reference wavelength of 620 nm.

[1] = read-out: IC50 of chemotherapeutic agent, MDR INHIBITOR CsA
[2] = H69/LX4, no MDR inhibitor, 7 day exposure, mean of 2 - 4 experiments, read-out: IC50 of chemotherapeutic agent, MDR INHIBITOR None
[3] = H69/LX4, with B669 0.5 µg/ml, 7 day exposure, read-out: IC50 of chemotherapeutic agent, MDR INHIBITOR B669
[4] = H69/LX4, with Clofazimine 1 µg/ml, 7 day exposure, read-out: IC50 of chemotherapeutic agent, MDR INHIBITOR Clofazimine (B663)
[5] = H69/P, with Clofazimine 1 µg/ml
[6] = H69/P, no MDR inhibitor, 7 day exposure, mean of 2 - 4 experiments, read-out: IC50 of chemotherapeutic agent, MDR INHIBITOR None
[7] = H69/P, with B669 0.5 µg/ml, 7 day exposure, read-out: IC50 of chemotherapeutic agent, MDR INHIBITOR B669
[8] = H69/P, with Clofazimine 1 µg/ml, 7 day exposure, read-out: IC50 of chemotherapeutic agent, MDR INHIBITOR Clofazimine (B663)
[9] = in the presence of doxorubicin (12 ng/ml), read-out: IC 50 of riminophenazine, Doxorubicin
[10] = in the presence of vinblastine (3 ng/ml), read-out: IC 50 of riminophenazine, Vinblastine
[11] = riminophenazine alone, mean of 2 experiments, read-out: IC 50 of riminophenazine, None
[12] = read-out: IC50 of chemotherapeutic agent, MDR INHIBITOR B669
[13] = read-out: IC50 of chemotherapeutic agent, MDR INHIBITOR Clofazimine (B663)
[14] = read-out: IC50 of chemotherapeutic agent, MDR INHIBITOR None

Compound `COc1cccc2c1C(=O)c1c(O)c3c(c(O)c1C2=O)C[C@@](O)(C(C)=O)C[C@@H]3O[C@H]1C[C@H](N)[C@H](O)[C@H](C)O1` [Daunorubicin] has an IC50 (H69/LX4; [1]) of 0.004 µg/mL (≈ 0.00758 µM), an IC50 (H69/LX4; [2]) of 0.036 µg/mL (≈ 0.0682 µM) and an IC50 (H69/LX4; [3]) of 0.015 µg/mL (≈ 0.0284 µM). For the same compound, the IC50 (H69/LX4; [4]) was 0.009 µg/mL (≈ 0.0171 µM), the “fold sensitivity compared with the chemotherapeutic agent without the MDR inhibitor, B669” value (H69/P; H69/P, with B669 0.5 µg/ml) was 1.2 fold and the “fold sensitivity compared with the chemotherapeutic agent without the MDR inhibitor, Clofazimine (B663)” value (H69/P; [5]) was 1.0 fold. The “fold sensitivity compared with the chemotherapeutic agent without the MDR inhibitor, CsA” value (H69/P; H69/P) was 1.0 fold, the IC50 (H69/P; [1]) was 0.002 µg/mL (≈ 0.00379 µM) and the IC50 (H69/P; [6]) was 0.002 µg/mL (≈ 0.00379 µM). It also gave an IC50 (H69/P; [7]) of 0.0016 µg/mL (≈ 0.00303 µM) and an IC50 (H69/P; [8]) of 0.002 µg/mL (≈ 0.00379 µM).
`CC(C)c1ccc(Nc2cc3nc4cc(Cl)ccc4n(-c4ccc(C(C)C)cc4)c-3cc2=NC2CC(C)(C)NC(C)(C)C2)cc1` [Compound B4159, N,5-bis(4-isopropylphenyl)-8-chloro-3,5-dihydro-3-[(2',2',6',6'-tetramethyl-4-piperidyl)-imino]-2-phenazinamine] showed an IC50 (K562/MMB; [9]) of 0.514 µg/mL, an IC50 (K562/MMB; [10]) of 0.13 µg/mL and an IC50 (K562/MMB; [11]) of 0.912 µg/mL (≈ 1.47 µM).
With `CC1(C)CC(N=c2cc3n(-c4ccc(Cl)c(Cl)c4)c4ccccc4nc-3cc2Nc2ccc(Cl)c(Cl)c2)CC(C)(C)N1` [Compound B4100] the IC50 (K562/MMB; [9]) was 0.278 µg/mL, the IC50 (K562/MMB; [10]) was 0.095 µg/mL and the IC50 (K562/MMB; [11]) was 0.335 µg/mL (≈ 0.524 µM).
Work on `COc1cccc2c1C(=O)c1c(O)c3c(c(O)c1C2=O)C[C@@](O)(C(=O)CO)C[C@@H]3O[C@H]1C[C@H](N)[C@H](O)[C@H](C)O1` [Doxorubicin] yielded an IC50 (H69/LX4; [1]) of 0.01 µg/mL (≈ 0.0184 µM), an IC50 (H69/LX4; [2]) of 0.11 µg/mL (≈ 0.202 µM) and an IC50 (H69/LX4; [3]) of 0.016 µg/mL (≈ 0.0294 µM). For the same compound, the IC50 (H69/LX4; [4]) was 0.01 µg/mL (≈ 0.0184 µM), the “fold sensitivity compared with the chemotherapeutic agent without the MDR inhibitor, B669” value (H69/P; H69/P, with B669 0.5 µg/ml) was 1.0 fold and the “fold sensitivity compared with the chemotherapeutic agent without the MDR inhibitor, Clofazimine (B663)” value (H69/P; [5]) was 0.8 fold. The “fold sensitivity compared with the chemotherapeutic agent without the MDR inhibitor, CsA” value (H69/P; H69/P) was 1.0 fold, the IC50 (H69/P; [1]) was 0.003 µg/mL (≈ 0.00552 µM) and the IC50 (H69/P; [6]) was 0.003 µg/mL (≈ 0.00552 µM). The IC50 (H69/P; [7]) was 0.003 µg/mL (≈ 0.00552 µM) and the IC50 (H69/P; [8]) was 0.004 µg/mL (≈ 0.00736 µM).
For `O=P1(N(CCCl)CCCl)NCCCO1` (stereo not drawn) [Cyclophosphamide], the IC50 (H69/LX4; [12]) was 1.4 µg/mL (≈ 5.36 µM), the IC50 (H69/LX4; [13]) was 1.6 µg/mL (≈ 6.13 µM) and the IC50 (H69/LX4; [1]) was 1.7 µg/mL (≈ 6.51 µM). For the same compound, the IC50 (H69/LX4; [14]) was 1.6 µg/mL (≈ 6.13 µM), the “fold sensitivity compared with the chemotherapeutic agent without the MDR inhibitor, B669” value (H69/P; H69/P, with B669 0.5 µg/ml) was 1.0 fold and the “fold sensitivity compared with the chemotherapeutic agent without the MDR inhibitor, Clofazimine (B663)” value (H69/P; [5]) was 0.9 fold. For the same compound, the “fold sensitivity compared with the chemotherapeutic agent without the MDR inhibitor, CsA” value (H69/P; H69/P) was 1.1 fold, the IC50 (H69/P; [12]) was 1.8 µg/mL (≈ 6.89 µM) and the IC50 (H69/P; [13]) was 1.9 µg/mL (≈ 7.28 µM). The IC50 (H69/P; [1]) was 1.6 µg/mL (≈ 6.13 µM) and the IC50 (H69/P; [14]) was 1.8 µg/mL (≈ 6.89 µM).
Compound `CC1(C)CC(N=c2cc3n(-c4cccc(C(F)(F)F)c4)c4ccccc4nc-3cc2Nc2cccc(C(F)(F)F)c2)CC(C)(C)N1` [Compound B4126, N,5-bis(3-trifluoromethyl-4-phenyl)-3,5-dihydro-3-[(2',2',6',6'-tetramethyl-4-piperidyl)-imino]-2-phenazinamine] has an IC50 (K562/MMB; [9]) of 0.246 µg/mL, an IC50 (K562/MMB; [10]) of 0.071 µg/mL and an IC50 (K562/MMB; [11]) of 0.316 µg/mL (≈ 0.496 µM).
For `CC1(C)CC(N=c2cc3n(-c4ccc(C(F)(F)F)cc4)c4ccccc4nc-3cc2Nc2ccc(C(F)(F)F)cc2)CC(C)(C)N1` [Compound B4103, N,5-bis(4-trifluoromethylphenyl)-3,5-dihydro-3[(2',2',6',6'-tetramethyl-4-piperidyl)imino]-2-phenazinamine], the IC50 (K562/MMB; [9]) was 0.269 µg/mL, the IC50 (K562/MMB; [10]) was 0.051 µg/mL and the IC50 (K562/MMB; [11]) was 0.351 µg/mL (≈ 0.55 µM).
Work on `CC1(C)CC(N=c2cc3n(-c4ccc(Cl)c(C(F)(F)F)c4)c4ccccc4nc-3cc2Nc2ccc(Cl)c(C(F)(F)F)c2)CC(C)(C)N1` [Compound B4163, N,5-bis[(3-trifluoromethyl)-4-chlorophenyl]-3,5-dihydro-3-[(2',2',6',6'-tetramethylpiperidyl)-imino]-2-phenazinamie] yielded an IC50 (K562/MMB; [9]) of 0.227 µg/mL, an IC50 (K562/MMB; [10]) of under 0.05 µg/mL and an IC50 (K562/MMB; [11]) of 0.34 µg/mL (≈ 0.481 µM).
Work on `CC1(C)CC(N=c2cc3n(-c4ccc(Cl)cc4Cl)c4ccccc4nc-3cc2Nc2ccc(Cl)cc2Cl)CC(C)(C)N1` [Compound B4128] yielded an IC50 (K562/MMB; [9]) of 0.215 µg/mL, an IC50 (K562/MMB; [10]) of 0.059 µg/mL and an IC50 (K562/MMB; [11]) of 0.383 µg/mL (≈ 0.599 µM).
`CC1(C)CC(N=c2cc3n(-c4cccc(C(F)(F)F)c4)c4ccc(Cl)cc4nc-3cc2Nc2cccc(C(F)(F)F)c2)CC(C)(C)N1` [Compound B4127, N,5-bis(3-trifluoromethylphenyl)-8-chloro-3,5-dihydro-3-[(2',2',6',6'-tetramethyl-4-piperidyl)-imino]-2-phenazinamine] gave an IC50 (K562/MMB; [9]) of 0.168 µg/mL, an IC50 (K562/MMB; [10]) of 0.07 µg/mL and an IC50 (K562/MMB; [11]) of 0.425 µg/mL (≈ 0.632 µM).
